From patent publication US8017597B2, “Analgesic agent comprising cyclic phosphatidic acid derivative” (Ochanomizu University, priority 2006, dated 2011)
Entries after “also recorded” stand apart in the source; their conditions may differ. Like-named read-outs stand apart in the source and are kept apart here.

Key:
anesthetized cats = conditions: cited from earlier work
anesthetized rats [1] = test system: anesthetized rats
anesthetized rats [2] = test: Heart rate increase reaction induced by frequent electrical stimulation of hindlimb afferent nerves, i.v. administration; assay type: in vivo, rat; conditions: for suppressive effect on heart rate increase: anesthetized rats, i.v., electrical stimulation of lower extremity nerves
Description: Among (1) “heart rate increase reaction induced by frequent electrical stimulation of hindlimb afferent nerves” employed herein is not induced by weak stimulation intensity (0.2 V) that excites only thick medullated A-fibers, but induced by stimulation intensity (1 V) that is the same or higher than the excitation threshold of thin medullated A-fibers. When the stimulation intensity is further increased (10 V) so as to cause excitation of nonmedullated C fibers, the amplification of the heart rate increase reaction is increased to reach the maximum level (Sato et al, J Auton Nery Syst 4: 231, 1981; Uchida et al, Neurosci Left 269: 161, 1999). Noxious information is transmitted by A-fibers and C fibers. Therefore, such heart rate increase reaction induced by excitation of somatic afferent A-fibers and C fibers can be an indicator for evaluation of analgesic effects.
Blood pressure waveform was collected using a pulse rate tachometer (AT601-O, Nihon Kohden) and the heart rate was recorded continuously.

[3] = Arterial blood pressure after i.v. cPA administration; assay type: in vivo, rat
Description: The right femoral artery was cannulated. Arterial blood pressure was continuously recorded from the intra-arterial cannula using a pressure transducer (TP-400T, Nihon Kohden, Tokyo).

[4] = test system: DNA polymerase α of eukaryotic cells; conditions: cited from earlier work
Sequence of DNA polymerase α of eukaryotic cells (P09884 whole entry): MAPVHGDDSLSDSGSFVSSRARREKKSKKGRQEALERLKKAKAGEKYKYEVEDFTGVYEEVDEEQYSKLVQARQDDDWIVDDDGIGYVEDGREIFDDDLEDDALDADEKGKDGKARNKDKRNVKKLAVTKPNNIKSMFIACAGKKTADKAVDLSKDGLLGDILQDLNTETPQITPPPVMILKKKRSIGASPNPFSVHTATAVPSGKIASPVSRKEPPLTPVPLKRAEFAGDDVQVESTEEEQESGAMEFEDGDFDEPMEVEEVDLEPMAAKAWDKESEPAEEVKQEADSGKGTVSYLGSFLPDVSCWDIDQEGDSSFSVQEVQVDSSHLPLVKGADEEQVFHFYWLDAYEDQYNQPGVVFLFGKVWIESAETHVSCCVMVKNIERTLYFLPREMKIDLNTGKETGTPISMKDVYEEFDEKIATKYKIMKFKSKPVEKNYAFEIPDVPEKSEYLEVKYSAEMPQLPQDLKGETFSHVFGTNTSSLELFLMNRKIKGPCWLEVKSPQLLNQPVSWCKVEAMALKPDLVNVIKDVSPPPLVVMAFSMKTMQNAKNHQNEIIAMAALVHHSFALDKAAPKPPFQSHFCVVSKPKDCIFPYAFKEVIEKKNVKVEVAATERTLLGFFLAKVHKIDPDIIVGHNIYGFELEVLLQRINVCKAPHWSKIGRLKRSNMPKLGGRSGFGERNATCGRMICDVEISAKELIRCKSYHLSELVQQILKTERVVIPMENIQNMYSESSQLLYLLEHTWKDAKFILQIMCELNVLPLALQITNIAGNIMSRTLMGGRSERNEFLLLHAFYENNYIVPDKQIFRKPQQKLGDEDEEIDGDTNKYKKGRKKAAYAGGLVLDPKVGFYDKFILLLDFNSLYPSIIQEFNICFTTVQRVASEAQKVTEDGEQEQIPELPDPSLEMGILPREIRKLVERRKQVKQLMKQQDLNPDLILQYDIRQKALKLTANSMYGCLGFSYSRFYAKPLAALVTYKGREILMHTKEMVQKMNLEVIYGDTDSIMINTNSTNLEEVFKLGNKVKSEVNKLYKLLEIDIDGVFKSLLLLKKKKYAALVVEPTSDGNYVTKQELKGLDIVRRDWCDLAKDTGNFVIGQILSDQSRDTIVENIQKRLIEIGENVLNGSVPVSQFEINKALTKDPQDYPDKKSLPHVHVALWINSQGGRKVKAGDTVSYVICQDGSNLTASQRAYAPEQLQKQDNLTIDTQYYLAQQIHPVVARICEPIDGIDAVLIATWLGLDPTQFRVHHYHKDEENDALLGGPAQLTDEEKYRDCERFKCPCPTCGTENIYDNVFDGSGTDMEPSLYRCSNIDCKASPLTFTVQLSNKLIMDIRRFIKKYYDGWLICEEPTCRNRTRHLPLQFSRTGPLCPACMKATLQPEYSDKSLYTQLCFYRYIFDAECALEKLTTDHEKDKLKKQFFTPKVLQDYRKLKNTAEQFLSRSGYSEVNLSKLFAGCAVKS
Sequence of DNA polymerase α of eukaryotic cells (Q14181 whole entry partner): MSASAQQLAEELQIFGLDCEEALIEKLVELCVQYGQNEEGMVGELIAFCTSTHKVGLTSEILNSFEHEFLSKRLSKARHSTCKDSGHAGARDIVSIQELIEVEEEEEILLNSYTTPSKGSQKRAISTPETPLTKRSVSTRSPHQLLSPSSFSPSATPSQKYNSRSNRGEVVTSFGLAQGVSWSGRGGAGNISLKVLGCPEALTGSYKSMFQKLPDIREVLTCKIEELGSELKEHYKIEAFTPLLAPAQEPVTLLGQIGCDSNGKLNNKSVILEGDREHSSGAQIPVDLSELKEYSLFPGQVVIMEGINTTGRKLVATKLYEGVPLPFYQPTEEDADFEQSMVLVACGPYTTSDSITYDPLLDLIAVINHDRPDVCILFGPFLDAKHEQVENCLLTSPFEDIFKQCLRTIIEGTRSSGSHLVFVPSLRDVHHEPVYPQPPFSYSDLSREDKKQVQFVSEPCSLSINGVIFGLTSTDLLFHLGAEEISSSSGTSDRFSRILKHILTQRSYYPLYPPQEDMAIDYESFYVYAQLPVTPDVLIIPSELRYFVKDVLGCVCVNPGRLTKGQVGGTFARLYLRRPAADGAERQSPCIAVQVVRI
Sequence of DNA polymerase α of eukaryotic cells (P49642 whole entry partner): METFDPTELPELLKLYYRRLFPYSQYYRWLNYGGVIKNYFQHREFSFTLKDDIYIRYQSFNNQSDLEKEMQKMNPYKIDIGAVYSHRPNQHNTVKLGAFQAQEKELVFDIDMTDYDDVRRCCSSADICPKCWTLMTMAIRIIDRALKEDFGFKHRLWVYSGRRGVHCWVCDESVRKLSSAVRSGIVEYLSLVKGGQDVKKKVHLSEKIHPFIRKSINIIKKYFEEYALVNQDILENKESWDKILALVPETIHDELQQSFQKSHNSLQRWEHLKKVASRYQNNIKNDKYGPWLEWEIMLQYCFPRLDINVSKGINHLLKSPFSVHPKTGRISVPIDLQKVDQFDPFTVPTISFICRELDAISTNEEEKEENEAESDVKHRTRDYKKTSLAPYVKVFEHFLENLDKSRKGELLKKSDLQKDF
Sequence of DNA polymerase α of eukaryotic cells (P49643 whole entry partner): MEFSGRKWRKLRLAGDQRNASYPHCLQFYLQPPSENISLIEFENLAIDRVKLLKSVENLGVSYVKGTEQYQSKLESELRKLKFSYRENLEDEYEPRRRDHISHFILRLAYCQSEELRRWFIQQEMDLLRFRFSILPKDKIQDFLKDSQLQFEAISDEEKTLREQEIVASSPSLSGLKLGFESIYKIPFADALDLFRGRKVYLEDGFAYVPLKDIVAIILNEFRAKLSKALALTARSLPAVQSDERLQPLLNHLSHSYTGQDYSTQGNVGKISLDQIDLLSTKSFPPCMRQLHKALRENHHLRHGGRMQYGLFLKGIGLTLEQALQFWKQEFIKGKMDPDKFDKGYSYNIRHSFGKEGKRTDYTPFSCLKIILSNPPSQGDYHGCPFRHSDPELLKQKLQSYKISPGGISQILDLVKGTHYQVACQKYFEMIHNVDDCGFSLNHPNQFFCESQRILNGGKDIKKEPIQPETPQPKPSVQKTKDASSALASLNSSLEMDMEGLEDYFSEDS

[5] = 50 μg/Kg i.v., 10 to 15 minutes after administration
[6] = 100 μg/Kg i.v., 10 to 15 minutes after administration
[7] = 200 μg/Kg i.v., 10 to 15 minutes after administration

SMILES: CN1CC[C@]23c4c5ccc(O)c4O[C@H]2[C@@H](O)C=C[C@H]3[C@H]1C5 [morphine]
- effect on C-reflex potential (anesthetized cats): selectively suppresses C-reflex potential alone

SMILES: CCCCCC/C=C\CCCCCCCC(=O)OCC1COP(=O)(O)C1 (stereo not shown) [Pal-2 ccPA, palmitoleoyl 2 carba cPA]
- decrease in depolarization level of C reflex (anesthetized rats [1]; [5]): ≥ 30%
- decrease in depolarization level of C reflex (anesthetized rats [1]; [6]): approximately 60%
- decrease in depolarization level of C reflex (anesthetized rats [1]; [7]): approximately 70%
- decrease in depolarization level of C reflex (anesthetized rats [1]; 500 μg/Kg i.v., 10 to 15 minutes after administration): approximately 80%
- change in discharge/depolarization level of cardiac nerves, particularly C reflex (anesthetized rats [1]; anesthetized rats, i.v.): significant decrease

SMILES: CCCCCCCC/C=C\CCCCCCCC(=O)OCC1COP(=O)(O)O1 (stereo not shown) [Ole-cPA, 1-oleoyl cyclic phosphatidic acid]
- suppressive effect on heart rate increase (anesthetized rats [2]): significantly suppressed; also recorded: significantly observed
- heart rate increase compared with control (anesthetized rats [2]; dose 5 mg/Kg body weight i.v.): a half of or lower than that of the control
- suppressive effect on heart rate increase after 20 minutes (anesthetized rats [2]; dose 5 mg/Kg i.v., after 20 minutes): significant suppressive effect
- duration of the suppressive effect on heart rate increase (anesthetized rats [2]; dose higher than 1 mg/Kg body weight i.v.): ≥ 20 min
- effects of administration on blood pressure ([3]; anesthetized rats, i.v.): not observed
- blood pressure ([3]; dose 2 mg/Kg body weight or less i.v.): ~90 mmHg
- decrease in depolarization level of C reflex (anesthetized rats [1]; 2 mg/Kg i.v.): approximately 50%
- changes in discharge level of Aδ reflex (anesthetized rats [1]; after administration, compared with C reflex): inconsistent
- change in discharge/depolarization level of cardiac nerves, particularly C reflex (anesthetized rats [1]; anesthetized rats, i.v.): decreased
- decrease in discharge level of C reflex (anesthetized rats [1]; any concentration, 10 to 15 minutes after administration): approximately 1 mV
- decrease in discharge level of C reflex (anesthetized rats [1]; any concentration, 10 to 15 minutes after administration, relative to before administration): up to 40%
- decrease in discharge level of C reflex (anesthetized rats [1]; dose 2 mg/Kg, 30 minutes after administration, compared with before administration): approximately 20%

SMILES: CCCCCC/C=C\CCCCCCCC(=O)OCC1CCP(=O)(O)O1 (stereo not shown) [Pal-3 ccPA, palmitoleoyl 3 carba cPA]
- decrease in depolarization level of C reflex (anesthetized rats [1]; [5]): approximately 30%
- decrease in depolarization level of C reflex (anesthetized rats [1]; [6]): approximately 50%
- decrease in depolarization level of C reflex (anesthetized rats [1]; [7]): approximately 60%
- change in discharge/depolarization level of cardiac nerves, particularly C reflex (anesthetized rats [1]; anesthetized rats, i.v.): significant decrease
- degree of decrease in C reflex depolarization compared with 2 carba derivatives (anesthetized rats [1]; i.v., anesthetized rats): somewhat lower

SMILES: CCCCCC[C@@H]1C[C@@H]1CCCCCCCC(=O)OC[C@@H]1COP(=O)(O)O1 [PHYLPA]
- effect on activity of DNA polymerase α [4]: suppresses

SMILES: CCCCCCCCCCCCCCCC(=O)OCC1COP(=O)(O)O1 (stereo not shown) [Pal-cPA]
- suppressive effect on heart rate increase (anesthetized rats [2]): no consistent tendency could be confirmed; also recorded: not significant
- blood pressure ([3]; after dose of 2 mg/Kg body weight i.v.): 130 mmHg
- blood pressure ([3]; dose 300 μg/Kg body weight i.v., brief increase): around 100 mmHg
- blood pressure ([3]; dose 2 mg/Kg i.v., thereafter up to 30 minutes after administration): around 130 mmHg
